Reference: ChEMBL document CHEMBL5303762, “Data for DCP probe BI-8668” (2023)

Assays:
[1] = biological target: 3',5'-cyclic-AMP phosphodiesterase 4D (Homo sapiens) (UniProt Q08499); assay: PDE4D2 Eurofins SafetyScreen44 (BI); details: Compound concentration 10.0 uM
[2] = biological target: Muscarinic acetylcholine receptor M3 (Homo sapiens) (UniProt P20309); assay: M3/H Eurofins SafetyScreen44 (BI); details: Compound concentration 10.0 uM
[3] = biological target: T1, Alpha-1A adrenergic receptor (Homo sapiens) (UniProt P35348); assay: ALPHA1AH_ANTAG Eurofins SafetyScreen44 (BI); details: filed as antagonist, Compound concentration 10.0 uM
T1 sequence (whole entry): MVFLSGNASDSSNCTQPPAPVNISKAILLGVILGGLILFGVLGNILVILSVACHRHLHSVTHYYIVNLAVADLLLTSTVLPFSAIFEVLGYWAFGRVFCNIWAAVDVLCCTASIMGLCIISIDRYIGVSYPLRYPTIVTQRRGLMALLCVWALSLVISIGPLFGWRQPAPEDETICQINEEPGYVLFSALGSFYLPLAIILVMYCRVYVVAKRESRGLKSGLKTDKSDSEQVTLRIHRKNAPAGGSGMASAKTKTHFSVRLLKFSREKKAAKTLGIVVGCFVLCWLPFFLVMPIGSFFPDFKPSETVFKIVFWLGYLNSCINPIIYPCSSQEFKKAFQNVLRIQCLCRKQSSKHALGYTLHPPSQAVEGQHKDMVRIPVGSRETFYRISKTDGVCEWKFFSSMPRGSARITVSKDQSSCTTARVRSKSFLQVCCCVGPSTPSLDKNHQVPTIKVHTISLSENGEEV

[4] = biological target: Histamine H2 receptor (Homo sapiens) (UniProt P25021); assay: H2/APT/HS Eurofins SafetyScreen44 (BI); details: filed as antagonist, Compound concentration 10.0 uM
[5] = biological target: voltage-gated sodium channel (site 2) (Rattus norvegicus, UniProt F1LQQ7+O08562+O88420+O88457+P04774+P04775+P08104+P15389+P15390+Q62968); assay: NA+/SITE2/R Eurofins SafetyScreen44 (BI); type: protein assay; details: compound concentration 10 uM, read-out: % Ctrl
[6] = biological target: T2, Muscarinic acetylcholine receptor M2 (Homo sapiens) (UniProt P08172); assay: M2/H Eurofins SafetyScreen44 (BI); details: filed as antagonist, Compound concentration 10.0 uM
T2 sequence (whole entry): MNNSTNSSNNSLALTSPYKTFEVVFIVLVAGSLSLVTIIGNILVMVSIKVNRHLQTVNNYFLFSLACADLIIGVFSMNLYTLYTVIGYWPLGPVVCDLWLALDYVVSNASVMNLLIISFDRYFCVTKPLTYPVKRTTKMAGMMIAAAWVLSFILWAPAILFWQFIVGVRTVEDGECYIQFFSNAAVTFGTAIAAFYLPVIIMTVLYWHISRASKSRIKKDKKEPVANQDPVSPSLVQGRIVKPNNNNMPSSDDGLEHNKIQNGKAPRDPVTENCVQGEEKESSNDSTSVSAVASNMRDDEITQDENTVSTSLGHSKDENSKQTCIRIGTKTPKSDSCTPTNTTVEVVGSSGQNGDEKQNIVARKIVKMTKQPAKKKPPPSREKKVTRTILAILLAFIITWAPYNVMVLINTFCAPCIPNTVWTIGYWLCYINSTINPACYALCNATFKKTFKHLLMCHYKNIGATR

[7] = biological target: Androgen receptor (Homo sapiens) (UniProt P10275); assay: ANDROGEN/H Eurofins SafetyScreen44 (BI); details: Compound concentration 10.0 uM
[8] = biological target: 5-hydroxytryptamine receptor 2A (Homo sapiens) (UniProt P28223); assay: 5HT2AH_AGON Eurofins SafetyScreen44 (BI); details: filed as agonist, Compound concentration 10.0 uM
Sequence of 5-hydroxytryptamine receptor 2A (Homo sapiens) (P28223 whole entry): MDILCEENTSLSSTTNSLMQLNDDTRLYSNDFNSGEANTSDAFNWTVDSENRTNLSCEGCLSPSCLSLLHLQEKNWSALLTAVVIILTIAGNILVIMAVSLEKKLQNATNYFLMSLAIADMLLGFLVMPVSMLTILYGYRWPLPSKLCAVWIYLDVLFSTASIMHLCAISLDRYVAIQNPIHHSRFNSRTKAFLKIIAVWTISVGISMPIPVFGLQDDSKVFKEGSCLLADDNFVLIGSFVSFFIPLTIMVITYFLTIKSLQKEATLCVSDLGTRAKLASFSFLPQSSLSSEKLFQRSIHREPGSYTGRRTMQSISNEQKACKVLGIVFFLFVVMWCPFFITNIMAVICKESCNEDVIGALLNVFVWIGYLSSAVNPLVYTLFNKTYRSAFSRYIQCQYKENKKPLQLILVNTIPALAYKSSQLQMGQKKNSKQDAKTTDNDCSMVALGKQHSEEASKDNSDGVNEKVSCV

[9] = biological target: Tyrosine-protein kinase Lck (Homo sapiens) (UniProt P06239); assay: LCK_CE Eurofins SafetyScreen44 (BI); details: Compound concentration 10.0 uM
Sequence of Tyrosine-protein kinase Lck (Homo sapiens) (P06239 2-509 limits assumed): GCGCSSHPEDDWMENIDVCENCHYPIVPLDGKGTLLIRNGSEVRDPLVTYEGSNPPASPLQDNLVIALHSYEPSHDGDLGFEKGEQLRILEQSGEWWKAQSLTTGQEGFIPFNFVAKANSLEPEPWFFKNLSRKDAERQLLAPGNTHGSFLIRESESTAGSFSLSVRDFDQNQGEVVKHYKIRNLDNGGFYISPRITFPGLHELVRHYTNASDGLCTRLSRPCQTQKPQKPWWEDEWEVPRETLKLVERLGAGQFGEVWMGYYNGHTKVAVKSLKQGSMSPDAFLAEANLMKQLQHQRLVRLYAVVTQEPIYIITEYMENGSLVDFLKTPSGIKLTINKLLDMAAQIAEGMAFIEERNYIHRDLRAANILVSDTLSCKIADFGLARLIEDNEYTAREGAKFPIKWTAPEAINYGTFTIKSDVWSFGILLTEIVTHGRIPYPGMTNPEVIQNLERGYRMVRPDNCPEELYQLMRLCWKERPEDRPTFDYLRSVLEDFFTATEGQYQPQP

[10] = biological target: Beta-2 adrenergic receptor (Homo sapiens) (UniProt P07550); assay: BETA2/HUM Eurofins SafetyScreen44 (BI); details: filed as antagonist, Compound concentration 10.0 uM
Sequence of Beta-2 adrenergic receptor (Homo sapiens) (P07550 whole entry, looked up): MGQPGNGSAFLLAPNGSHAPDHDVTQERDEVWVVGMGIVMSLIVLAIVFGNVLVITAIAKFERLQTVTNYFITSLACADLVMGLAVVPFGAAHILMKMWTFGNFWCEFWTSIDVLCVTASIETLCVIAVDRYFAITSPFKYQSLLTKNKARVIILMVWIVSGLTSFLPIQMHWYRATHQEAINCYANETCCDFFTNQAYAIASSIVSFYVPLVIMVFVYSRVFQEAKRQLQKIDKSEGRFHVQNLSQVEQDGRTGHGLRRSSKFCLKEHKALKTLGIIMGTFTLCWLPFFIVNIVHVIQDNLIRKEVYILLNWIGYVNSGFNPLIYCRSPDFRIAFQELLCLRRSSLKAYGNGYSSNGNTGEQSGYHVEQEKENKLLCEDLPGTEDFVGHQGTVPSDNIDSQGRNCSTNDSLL

[11] = biological target: Sodium-dependent serotonin transporter (Homo sapiens) (UniProt P31645); assay: SLC6A4/H Eurofins SafetyScreen44 (BI); details: filed as antagonist, Compound concentration 10.0 uM
[12] = biological target: Endothelin-1 receptor (Homo sapiens) (UniProt P25101); assay: ETA/H Eurofins SafetyScreen44 (BI); details: Compound concentration 10.0 uM
Sequence of Endothelin-1 receptor (Homo sapiens) (P25101 whole entry): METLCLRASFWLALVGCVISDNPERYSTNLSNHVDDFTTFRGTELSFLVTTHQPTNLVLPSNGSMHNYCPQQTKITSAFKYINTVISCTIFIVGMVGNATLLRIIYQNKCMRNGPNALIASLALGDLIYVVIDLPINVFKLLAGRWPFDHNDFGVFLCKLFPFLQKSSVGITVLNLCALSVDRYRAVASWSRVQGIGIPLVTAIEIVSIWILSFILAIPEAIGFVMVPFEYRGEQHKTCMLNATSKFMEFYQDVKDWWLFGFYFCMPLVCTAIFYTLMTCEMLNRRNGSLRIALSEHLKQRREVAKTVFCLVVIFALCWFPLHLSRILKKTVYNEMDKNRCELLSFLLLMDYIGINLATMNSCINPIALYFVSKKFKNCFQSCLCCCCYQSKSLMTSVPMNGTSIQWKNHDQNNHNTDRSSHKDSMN

[13] = biological target: T3, Muscarinic acetylcholine receptor M1 (Homo sapiens) (UniProt P11229); assay: M1/H Eurofins SafetyScreen44 (BI); details: Compound concentration 10.0 uM
T3 sequence (whole entry): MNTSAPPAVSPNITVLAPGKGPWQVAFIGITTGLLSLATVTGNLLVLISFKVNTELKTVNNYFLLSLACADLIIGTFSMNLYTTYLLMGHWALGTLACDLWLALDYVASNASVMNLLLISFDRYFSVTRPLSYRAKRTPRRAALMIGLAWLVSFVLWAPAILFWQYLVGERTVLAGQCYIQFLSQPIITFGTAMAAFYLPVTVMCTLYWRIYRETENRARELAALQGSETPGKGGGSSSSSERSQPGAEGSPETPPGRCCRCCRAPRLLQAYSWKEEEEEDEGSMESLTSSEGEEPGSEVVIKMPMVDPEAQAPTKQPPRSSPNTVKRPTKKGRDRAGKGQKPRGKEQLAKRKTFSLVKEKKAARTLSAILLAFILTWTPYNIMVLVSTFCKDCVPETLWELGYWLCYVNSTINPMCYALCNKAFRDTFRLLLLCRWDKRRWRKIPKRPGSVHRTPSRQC

[14] = biological target: voltage-gated potassium channel (IKs; KCNQ1/KCNE1 as curated) (Rattus norvegicus, UniProt P15383+Q9Z0N7); assay: K+/VOLT/RA Eurofins SafetyScreen44 (BI); type: protein-complex assay; details: compound concentration 10 uM, read-out: % Ctrl
Sequence of voltage-gated potassium channel (IKs; KCNQ1/KCNE1 as curated) (Q9Z0N7 whole entry): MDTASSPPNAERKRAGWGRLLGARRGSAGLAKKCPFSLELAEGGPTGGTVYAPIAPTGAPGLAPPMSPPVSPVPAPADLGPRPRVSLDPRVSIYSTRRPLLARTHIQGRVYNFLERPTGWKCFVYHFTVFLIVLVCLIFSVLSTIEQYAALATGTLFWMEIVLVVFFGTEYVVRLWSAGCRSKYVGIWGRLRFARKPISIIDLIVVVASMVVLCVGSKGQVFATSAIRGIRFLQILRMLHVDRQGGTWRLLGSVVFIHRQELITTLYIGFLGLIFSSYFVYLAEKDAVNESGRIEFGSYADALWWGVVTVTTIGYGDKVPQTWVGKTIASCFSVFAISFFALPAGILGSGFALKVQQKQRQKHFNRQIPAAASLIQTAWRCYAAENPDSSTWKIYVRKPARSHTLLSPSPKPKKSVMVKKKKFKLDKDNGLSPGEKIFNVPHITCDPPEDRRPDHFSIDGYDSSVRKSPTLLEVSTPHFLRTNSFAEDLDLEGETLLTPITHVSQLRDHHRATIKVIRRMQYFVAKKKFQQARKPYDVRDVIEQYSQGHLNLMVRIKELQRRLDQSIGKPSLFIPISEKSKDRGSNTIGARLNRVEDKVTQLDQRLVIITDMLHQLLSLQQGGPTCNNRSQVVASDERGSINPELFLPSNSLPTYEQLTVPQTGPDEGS
Sequence of voltage-gated potassium channel (IKs; KCNQ1/KCNE1 as curated) (P15383 whole entry): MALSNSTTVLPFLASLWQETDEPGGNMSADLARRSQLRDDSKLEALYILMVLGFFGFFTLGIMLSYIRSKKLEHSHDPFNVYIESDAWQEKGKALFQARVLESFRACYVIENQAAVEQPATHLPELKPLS

[15] = biological target: Kappa-type opioid receptor (Homo sapiens) (UniProt P41145); assay: KAPPA(KOP)_HU Eurofins SafetyScreen44 (BI); details: Compound concentration 10.0 uM
[16] = biological target: Glucocorticoid receptor (Homo sapiens) (UniProt P04150); assay: GCORTICOID/H Eurofins SafetyScreen44 (BI); details: Compound concentration 10.0 uM
[17] = biological target: Glutamate NMDA receptor (Rattus norvegicus) (UniProt P35439+Q00959+Q00960+Q00961+Q62645+Q8VHN2+Q9R1M7); assay: NMDA/R Eurofins SafetyScreen44 (BI); type: protein-complex assay; details: Compound concentration 10.0 uM
[18] = biological target: Mu-type opioid receptor (Homo sapiens) (UniProt P35372); details: Compound concentration 10.0 uM
[19] = biological target: 5-hydroxytryptamine receptor 5A (Homo sapiens) (UniProt P47898); details: Compound concentration 10.0 uM
Sequence of 5-hydroxytryptamine receptor 5A (Homo sapiens) (P47898 whole entry): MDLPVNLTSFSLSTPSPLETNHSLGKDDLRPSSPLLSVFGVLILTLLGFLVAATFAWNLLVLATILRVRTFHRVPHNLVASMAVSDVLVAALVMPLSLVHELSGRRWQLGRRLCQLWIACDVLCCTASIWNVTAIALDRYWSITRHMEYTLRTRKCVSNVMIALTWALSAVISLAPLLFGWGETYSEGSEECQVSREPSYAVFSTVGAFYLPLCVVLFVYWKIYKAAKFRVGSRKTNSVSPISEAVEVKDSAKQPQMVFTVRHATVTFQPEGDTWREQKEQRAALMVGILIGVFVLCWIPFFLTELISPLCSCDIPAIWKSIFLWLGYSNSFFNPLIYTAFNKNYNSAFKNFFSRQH

[20] = biological target: 5-hydroxytryptamine receptor 1B (Homo sapiens) (UniProt P28222); details: Compound concentration 10.0 uM
Sequence of 5-hydroxytryptamine receptor 1B (Homo sapiens) (P28222 whole entry): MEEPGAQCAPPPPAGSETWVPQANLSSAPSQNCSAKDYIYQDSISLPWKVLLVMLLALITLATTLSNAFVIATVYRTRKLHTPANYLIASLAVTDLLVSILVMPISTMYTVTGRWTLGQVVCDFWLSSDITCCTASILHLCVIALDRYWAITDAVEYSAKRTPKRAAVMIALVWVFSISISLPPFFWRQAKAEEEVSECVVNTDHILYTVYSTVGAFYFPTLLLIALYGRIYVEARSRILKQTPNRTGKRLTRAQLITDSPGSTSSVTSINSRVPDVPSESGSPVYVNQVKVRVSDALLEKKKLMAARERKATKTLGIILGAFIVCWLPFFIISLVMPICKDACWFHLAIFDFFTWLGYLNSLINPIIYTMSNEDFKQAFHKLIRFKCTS

Sequence of 3',5'-cyclic-AMP phosphodiesterase 4D (Homo sapiens) (Q08499 whole entry): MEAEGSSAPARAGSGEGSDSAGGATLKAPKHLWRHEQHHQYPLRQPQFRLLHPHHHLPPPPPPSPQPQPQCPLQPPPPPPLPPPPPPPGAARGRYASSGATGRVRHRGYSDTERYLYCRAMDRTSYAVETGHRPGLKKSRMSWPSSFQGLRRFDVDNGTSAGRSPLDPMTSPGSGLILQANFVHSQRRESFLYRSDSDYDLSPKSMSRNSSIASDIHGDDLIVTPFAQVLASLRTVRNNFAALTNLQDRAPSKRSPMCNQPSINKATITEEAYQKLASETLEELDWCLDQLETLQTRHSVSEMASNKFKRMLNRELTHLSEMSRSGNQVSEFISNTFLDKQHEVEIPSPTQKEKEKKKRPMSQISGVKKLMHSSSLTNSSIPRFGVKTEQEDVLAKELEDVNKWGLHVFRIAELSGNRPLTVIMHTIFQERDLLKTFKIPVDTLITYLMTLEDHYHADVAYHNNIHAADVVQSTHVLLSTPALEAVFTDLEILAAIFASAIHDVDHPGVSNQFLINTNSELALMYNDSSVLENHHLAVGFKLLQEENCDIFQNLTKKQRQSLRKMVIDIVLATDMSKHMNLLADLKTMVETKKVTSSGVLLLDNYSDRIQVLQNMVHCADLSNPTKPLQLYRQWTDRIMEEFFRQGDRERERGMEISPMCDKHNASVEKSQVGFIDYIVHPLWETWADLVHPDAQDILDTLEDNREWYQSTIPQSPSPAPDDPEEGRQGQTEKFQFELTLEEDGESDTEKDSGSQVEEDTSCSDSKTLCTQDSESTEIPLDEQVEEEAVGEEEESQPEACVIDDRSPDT
Sequence of Muscarinic acetylcholine receptor M3 (Homo sapiens) (P20309 whole entry, looked up): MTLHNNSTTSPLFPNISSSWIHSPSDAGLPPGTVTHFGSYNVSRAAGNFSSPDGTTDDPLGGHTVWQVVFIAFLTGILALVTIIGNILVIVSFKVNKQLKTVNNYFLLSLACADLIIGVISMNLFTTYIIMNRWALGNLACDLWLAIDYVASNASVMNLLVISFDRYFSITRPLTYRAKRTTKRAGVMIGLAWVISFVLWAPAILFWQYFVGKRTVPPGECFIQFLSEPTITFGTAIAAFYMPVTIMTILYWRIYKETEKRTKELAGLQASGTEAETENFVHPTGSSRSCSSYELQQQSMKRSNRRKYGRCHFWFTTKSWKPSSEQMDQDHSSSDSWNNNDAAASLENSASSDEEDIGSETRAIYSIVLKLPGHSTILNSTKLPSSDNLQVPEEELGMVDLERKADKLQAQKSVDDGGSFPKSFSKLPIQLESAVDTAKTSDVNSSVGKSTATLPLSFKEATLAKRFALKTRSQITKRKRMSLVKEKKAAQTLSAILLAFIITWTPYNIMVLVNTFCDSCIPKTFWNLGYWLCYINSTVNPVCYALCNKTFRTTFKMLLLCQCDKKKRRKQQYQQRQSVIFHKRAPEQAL

SMILES	residual activity [1]	residual activity [2]	residual activity [3]	residual activity [4]	activity at 10 µM [5]	residual activity [6]	residual activity [7]	residual activity [8]	residual activity [9]	residual activity [10]	residual activity [11]	residual activity [12]	residual activity [13]	activity at 10 µM [14]	residual activity [15]	residual activity [16]	residual activity [17]	inhibition [18]	inhibition [19]	inhibition [20]
CCn1c(CNC(=O)c2ncc(C)nc2N)[n+](CC)c2ccc(C(=O)N(C)CN(C)C)cc21	87%	35%	63%	120%	87% (not active)	41%	99%	91%	60%	104%	31%	104%	76%	103% (not active)	97%	97%	100%			
CCn1c(CNC(=O)c2nc(Cl)cnc2N)[n+](CC)c2ccc(C(=O)N(C)CCN(C)C)cc21	99%	20%	45%	117%	66% (not active)	36%	106%	97%	95%	94%	97%	100%	50%	99% (not active)		115%	105%	11%	-6.08%	8.35%
